Measurements published in US20180207172A1, “TREATMENT FOR VITILIGO” (GLAXO GROUP LIMITED, priority 2015, published 2018).

Test system: CXCL10 secretion induced by poly(I:C) in HaCaT cells
Experiment: poly(I:C)-induced CXCL10 secretion assay in HaCaT cells (ELISA)
Type: cell-based, Human
Details: poly(I:C) 20 μg/ml, 48 hours
Protocol: In another CXCL10 assay, immortalized keratinocytes (HaCaTs) cells (AddexBio #T0020001) were cultured in DMEM (Thermo Fisher #10566-016) supplemented with 10% FBS and 1% penicillin/streptomycin. 1×10^5 HaCaT cells were seeded per well of a 24-well culture dish in 400 μl culture medium. Once confluent, medium was aspirated and cells were pretreated with 200 μl of DMSO vehicle (0.1%) or 3-fold serial dilutions ([…]) of 7-(2-(methyloxy)-6-{[(4-methyl-2-pyridinyl)methyl]oxy}-phenyl)-2,3,4,5-tetrahydro-1H-3-benzazepine (Compound 1) for 30 minutes at 37° C. with 5% CO2. After pre-treatment, 200 μl of poly(I:C) at 40 μg/ml was added per well (without removal of pre-treatment medium), making the final treatment concentration 20 μg/ml. Additional compound and/or DMSO was included to maintain concentrations. All samples received 0.1% DMSO during both pre-treatment and treatment phases. Cells were returned to the incubator for 48 hours. Each condition had biological triplicates.
At 48 hours, supernatants were collected, centrifuged to pellet debris, and then re-collected. CXCL10 secreted into the supernatant was measured by the Human CXCL10/IP-10 Quantikine ELISA Kit (R&D Systems #DIP 100) according to the manufacturer's protocol. […]

SMILES: COc1cccc(OCc2cc(C)ccn2)c1-c1ccc2c(c1)CCNCC2 [Compound 1, 7-(2-(methyloxy)-6-{[(4-methyl-2-pyridinyl)methyl]oxy}-phenyl)-2,3,4,5-tetrahydro-1H-3-benzazepine]
- CXCL10 secretion induced by poly(I:C), percentage of maximum stimulation (vehicle = 100%) (30 min pre-treatment, supernatant ELISA, FIG. 1): dose-dependent decrease
- dose concentration at which maximal inhibition of CXCL10 secretion was observed (highest concentration tested): 10 µM
